Here are results for one compound from patent US10668076B1, “Compositions and methods of targeting mutant K-Ras” (NantBio, Inc., priority 2011, dated 2020).

The test system of the data set is K-Ras wild type expressing 293 cells. The following applies: FIG. 6B.

Method: SW480 and HT29 cells are both propagated at 37° C./5% CO2 and in RPMI+10% fetal bovine serum (FBS) and DMEM+10% FBS, respectively. Upon plating cells in microtiter plates, compounds are supplemented at various concentrations and viability is assessed within 24-72 hrs by manual or automated (Countess (Invitrogen)) trypan blue cytometry.

As a reminder, the IC50 is the concentration at which inhibition is half-maximal. As to `Cc1ccc(Nc2nc(N/N=C/c3cccc([N+](=O)[O-])c3O)nc(N3CCOCC3)n2)cc1` [A0383, 2-(hydroxynitroso)-6-[(1E)-(2-{4-[(4-methylphenyl)amino]-6-(morpholin-4-yl)-1,3,5-triazin-2-yl}hydrazin-1-ylidene)methyl]phenol], the general toxicity entry (293 cells not overexpressing mutant K-Ras, dosages 50-100 µM) is “lack of general toxicity”. The IC50 (read-out: IC50 (cell death, unspecific toxicity), K-Ras wild type expressing 293 cells) is > 100 µM.
